For two compounds, MIC results are on record in US7129275B2, “Compositions for treating acne comprising phytandiol amine” (Coreana Cosmetics Co., Ltd., priority 2001, dated 2006).

Holding throughout (test): Minimum inhibitory concentration on reinforced clostridial agar
Conditions in all cases: 3 days at 35° C., anaerobic, complete growth inhibition

One test concerns P. avidum ATCC 25577. It is filed as cell-based, Propionibacterium avidum. The protocol:
(§1) To evaluate an antimicrobial activity of the phytandiol amine of this invention against acne pathogen, the minimum inhibitory concentration (hereinafter referred to as “MIC”) of the samples shown in Table 1 was measured as follows: The sample to be tested was added to reinforced clostridial agar medium (available from Difco Co.) in the amount of 0.001–0.1%, followed by solidification of the medium. The suspension of acne pathogenic bacteria found in Table 1 was streaked on the surface of the medium and the medium was incubated for 3 days at 35° C. under anaerobic condition.

The subject of the next test is P. acne ATCC 11828. The class given is cell-based, Propionibacterium acnes. As for the experimental part: as §1
Another test deals with P. acnes ATCC 6919. It is filed as cell-based, Propionibacterium acnes. The protocol: as §1

Take `CC[C@H]1OC(=O)[C@H](C)[C@@H](O[C@H]2C[C@@](C)(OC)[C@@H](O)[C@H](C)O2)[C@H](C)[C@@H](O[C@@H]2O[C@H](C)C[C@H](N(C)C)[C@H]2O)[C@](C)(O)C[C@@H](C)C(=O)[C@H](C)[C@@H](O)[C@]1(C)O` [Erythromycin]: the MIC in the test on P. avidum ATCC 25577, against P. acne ATCC 11828 and against P. acnes ATCC 6919 was 0.02% each time.

Regarding `O=C(OOC(=O)c1ccccc1)c1ccccc1` [Benzoyl peroxide], the MIC in the test on P. avidum ATCC 25577, against P. acne ATCC 11828 and in the test on P. acnes ATCC 6919 was 0.1% each time.
